Measured values from PubChem BioAssay (NCI).
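A five-concentration, 48-hour dose response in 96-well plates underlies each endpoint, interpolated linearly between surrounding concentrations. At the TGI there is no net growth.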

Legend:
Assay in all cases: NCI tumour cell line growth inhibition, 48 h
SK-MEL-2 melanoma = system: SK-MEL-2 melanoma
HCC-2998 colon = system: HCC-2998 colon
A498 renal = system: A498 renal
IGROV1 ovarian = system: IGROV1 ovarian
MCF7 breast = system: MCF7 breast
MOLT-4 leukemia = system: MOLT-4 leukemia
OVCAR-3 ovarian = system: OVCAR-3 ovarian
UACC-257 melanoma = system: UACC-257 melanoma
CAKI-1 renal = system: CAKI-1 renal
HOP-62 NSCLC = system: HOP-62 NSCLC
786-0 renal = system: 786-0 renal
MDA-N = system: MDA-N
M14 melanoma = system: M14 melanoma
CCRF-CEM leukemia = system: CCRF-CEM leukemia
HT29 colon = system: HT29 colon
SW-620 colon = system: SW-620 colon
LXFL 529 NSCLC = system: LXFL 529 NSCLC
RXF 393 renal = system: RXF 393 renal
SF-295 CNS = system: SF-295 CNS
SN12C renal = system: SN12C renal
LOX IMVI melanoma = system: LOX IMVI melanoma
OVCAR-8 ovarian = system: OVCAR-8 ovarian
HOP-18 NSCLC = system: HOP-18 NSCLC
DU-145 prostate = system: DU-145 prostate
OVCAR-4 ovarian = system: OVCAR-4 ovarian
NCI-H23 lung = system: NCI-H23 lung
U251 CNS = system: U251 CNS
HL-60(TB) leukemia = system: HL-60(TB) leukemia
UACC-62 melanoma = system: UACC-62 melanoma
SNB-75 CNS = system: SNB-75 CNS
A549 NSCLC = system: A549 NSCLC
NCI-H226 lung = system: NCI-H226 lung
SNB-78 CNS = system: SNB-78 CNS
HCT-15 colon = system: HCT-15 colon
NCI-H522 lung = system: NCI-H522 lung
TK-10 renal = system: TK-10 renal
MALME-3M melanoma = system: MALME-3M melanoma
NCI-H460 lung = system: NCI-H460 lung
MDA-MB-435 = system: MDA-MB-435
UO-31 renal = system: UO-31 renal
DLD-1 colon = system: DLD-1 colon
BT-549 breast = system: BT-549 breast
RPMI-8226 leukemia = system: RPMI-8226 leukemia
SR leukemia = system: SR leukemia
COLO 205 colon = system: COLO 205 colon
K-562 leukemia = system: K-562 leukemia
KM12 colon = system: KM12 colon
KM20L2 colon = system: KM20L2 colon
SNB-19 CNS = system: SNB-19 CNS
SK-MEL-5 melanoma = system: SK-MEL-5 melanoma
NCI/ADR-RES ovarian = system: NCI/ADR-RES ovarian
HCT-116 colon = system: HCT-116 colon
DMS 114 small cell lung = system: DMS 114 small cell lung
HOP-92 NSCLC = system: HOP-92 NSCLC
PC-3 prostate = system: PC-3 prostate
M19-MEL melanoma = system: M19-MEL melanoma
SK-OV-3 ovarian = system: SK-OV-3 ovarian
SF-268 CNS = system: SF-268 CNS
EKVX NSCLC = system: EKVX NSCLC
SK-MEL-28 melanoma = system: SK-MEL-28 melanoma
OVCAR-5 ovarian = system: OVCAR-5 ovarian
MDA-MB-231 breast = system: MDA-MB-231 breast
HS 578T breast = system: HS 578T breast
ACHN renal = system: ACHN renal
SF-539 CNS = system: SF-539 CNS
XF 498 CNS = system: XF 498 CNS
P388 leukemia = system: P388 leukemia
SN12K1 renal = system: SN12K1 renal
DMS 273 small cell lung = system: DMS 273 small cell lung
P388/ADR leukemia = system: P388/ADR leukemia

With `CC(C)Cc1ccc(C(C)/C=C2\CCC(CN(C)C)C2=O)cc1` (configuration not stated) the TGI (SK-MEL-2 melanoma) was 28.6 µM, the TGI (HCC-2998 colon) was 31.3 µM and the TGI (A498 renal) was 39.5 µM. For the same molecule, the TGI (IGROV1 ovarian) was 18 µM, the TGI (MCF7 breast) was 18 µM and the TGI (MOLT-4 leukemia) was 7.91 µM. It also gave a TGI (OVCAR-3 ovarian) of 26.5 µM, a TGI (UACC-257 melanoma) of 30 µM and a TGI (CAKI-1 renal) of 32.7 µM. The TGI (HOP-62 NSCLC) was 25 µM, the TGI (786-0 renal) was 8.13 µM and the TGI (MDA-N) was 22.2 µM. The TGI (M14 melanoma) was 28.5 µM, the TGI (CCRF-CEM leukemia) was 23.4 µM and the TGI (HT29 colon) was 31.5 µM. It also gave a TGI (SW-620 colon) of 17.4 µM, a TGI (LXFL 529 NSCLC) of 22.6 µM and a TGI (RXF 393 renal) of 35.1 µM. The TGI (SF-295 CNS) was 28.6 µM, the TGI (SN12C renal) was 20.5 µM and the TGI (LOX IMVI melanoma) was 15.6 µM. The TGI (OVCAR-8 ovarian) was 19 µM, the TGI (HOP-18 NSCLC) was 32.2 µM and the TGI (DU-145 prostate) was 23.6 µM. It also gave a TGI (OVCAR-4 ovarian) of 35.2 µM, a TGI (NCI-H23 lung) of 34 µM and a TGI (U251 CNS) of 30.4 µM. It also gave a TGI (HL-60(TB) leukemia) of 26.7 µM, a TGI (UACC-62 melanoma) of 33.8 µM and a TGI (SNB-75 CNS) of 30.8 µM. For the same molecule, the TGI (A549 NSCLC) was 69.5 µM, the TGI (NCI-H226 lung) was 46.4 µM and the TGI (SNB-78 CNS) was 36.3 µM. The TGI (HCT-15 colon) was 23.1 µM, the TGI (NCI-H522 lung) was 15.2 µM and the TGI (TK-10 renal) was 18.9 µM. For the same molecule, the TGI (MALME-3M melanoma) was 32.2 µM, the TGI (NCI-H460 lung) was 45.8 µM and the TGI (MDA-MB-435) was 19.6 µM. For the same molecule, the TGI (UO-31 renal) was 23.4 µM, the TGI (DLD-1 colon) was 40 µM and the TGI (BT-549 breast) was 31.1 µM. It also gave a TGI (RPMI-8226 leukemia) of 9.94 µM, a TGI (SR leukemia) of 9.41 µM and a TGI (COLO 205 colon) of 32.1 µM. For the same molecule, the TGI (K-562 leukemia) was 8.04 µM, the TGI (KM12 colon) was 18.2 µM and the TGI (KM20L2 colon) was 51.4 µM. It also gave a TGI (SNB-19 CNS) of 26.3 µM, a TGI (SK-MEL-5 melanoma) of 19.4 µM and a TGI (NCI/ADR-RES ovarian) of 24.3 µM. It also gave a TGI (HCT-116 colon) of 23.1 µM, a TGI (DMS 114 small cell lung) of 46.1 µM and a TGI (HOP-92 NSCLC) of 39.1 µM. The TGI (PC-3 prostate) was 22.4 µM, the TGI (M19-MEL melanoma) was 37.5 µM and the TGI (SK-OV-3 ovarian) was 36.5 µM. The TGI (SF-268 CNS) was 25.5 µM, the TGI (EKVX NSCLC) was 40.2 µM and the TGI (SK-MEL-28 melanoma) was 30.4 µM. The TGI (OVCAR-5 ovarian) was 43.1 µM, the TGI (MDA-MB-231 breast) was 4.52 µM and the TGI (HS 578T breast) was 8.45 µM. For the same molecule, the TGI (ACHN renal) was 38.1 µM, the TGI (SF-539 CNS) was 30.4 µM and the TGI (XF 498 CNS) was 36.5 µM.
`C=CCNC(=O)C(C)C1CCC2(C)C=CC(=O)C(C)=C2C1O` (configuration not stated) was tested, and the TGI (SK-MEL-2 melanoma) was over 100 µM, the TGI (HCC-2998 colon) was over 100 µM and the TGI (A498 renal) was over 100 µM. It also gave a TGI (IGROV1 ovarian) of over 100 µM, a TGI (MCF7 breast) of over 100 µM and a TGI (MOLT-4 leukemia) of over 100 µM. It also gave a TGI (P388 leukemia) of over 100 µM, a TGI (OVCAR-3 ovarian) of over 100 µM and a TGI (UACC-257 melanoma) of over 100 µM. For the same molecule, the TGI (CAKI-1 renal) was over 100 µM, the TGI (HOP-62 NSCLC) was over 100 µM and the TGI (CCRF-CEM leukemia) was over 100 µM. The TGI (HT29 colon) was over 100 µM, the TGI (SW-620 colon) was over 100 µM and the TGI (RXF 393 renal) was over 100 µM. For the same molecule, the TGI (SN12K1 renal) was over 100 µM, the TGI (SF-295 CNS) was over 100 µM and the TGI (SN12C renal) was over 100 µM. It also gave a TGI (LOX IMVI melanoma) of over 100 µM, a TGI (OVCAR-8 ovarian) of over 100 µM and a TGI (DMS 273 small cell lung) of over 100 µM. The TGI (HOP-18 NSCLC) was over 100 µM, the TGI (OVCAR-4 ovarian) was over 100 µM and the TGI (NCI-H23 lung) was over 100 µM. The TGI (U251 CNS) was over 100 µM, the TGI (HL-60(TB) leukemia) was over 100 µM and the TGI (UACC-62 melanoma) was over 100 µM. For the same molecule, the TGI (SNB-75 CNS) was over 100 µM, the TGI (A549 NSCLC) was over 100 µM and the TGI (NCI-H226 lung) was over 100 µM. For the same molecule, the TGI (SNB-78 CNS) was over 89.1 µM, the TGI (HCT-15 colon) was over 100 µM and the TGI (NCI-H522 lung) was over 100 µM. It also gave a TGI (NCI-H460 lung) of over 100 µM, a TGI (P388/ADR leukemia) of over 100 µM and a TGI (UO-31 renal) of over 100 µM. For the same molecule, the TGI (DLD-1 colon) was over 100 µM, the TGI (RPMI-8226 leukemia) was over 100 µM and the TGI (COLO 205 colon) was over 100 µM. It also gave a TGI (K-562 leukemia) of over 100 µM, a TGI (KM12 colon) of over 100 µM and a TGI (KM20L2 colon) of over 100 µM. The TGI (SNB-19 CNS) was over 100 µM, the TGI (SK-MEL-5 melanoma) was over 100 µM and the TGI (NCI/ADR-RES ovarian) was over 100 µM. For the same molecule, the TGI (HCT-116 colon) was over 100 µM, the TGI (DMS 114 small cell lung) was over 100 µM and the TGI (HOP-92 NSCLC) was over 100 µM. It also gave a TGI (M19-MEL melanoma) of over 100 µM, a TGI (SK-OV-3 ovarian) of over 100 µM and a TGI (SF-268 CNS) of over 100 µM. For the same molecule, the TGI (EKVX NSCLC) was over 100 µM, the TGI (SK-MEL-28 melanoma) was over 100 µM and the TGI (OVCAR-5 ovarian) was over 100 µM. It also gave a TGI (SF-539 CNS) of over 100 µM and a TGI (XF 498 CNS) of over 100 µM.
